Measured values from patent US10329309B2, “3-(3H-imidazo[4,5-B]pyridin-2-yl)-1H-pyrazolo[4,3-B]pyridines and therapeutic uses thereof” (Samumed, LLC, priority 2015, dated 2019).

Assays:
Type in all cases: cell-based
[1] = system: primary human mesenchymal stem cells (hMSCs); assay: Induction of chondrogenesis in primary human mesenchymal stem cells (nodule imaging, Rhodamine B/Nile Red); conditions: hMSC chondrogenesis; for Emax: TGF-β3 as positive control, read-out: Max. Activity as % TGF-β3 activity; for EC50: concentration required to induce 50% levels of chondrogenesis vs TGF-β3, read-out: Conc (nM) of 50% TGF-β3 activity
Description: Representative compounds were screened using primary human mesenchymal stem cells (hMSCs) to determine their ability to induce chondrogenesis (process by which cartilage is developed).
Primary human mesenchymal stem cells (hMSCs) were purchased from Lonza (Walkersville, Md.) and expanded in Mesenchymal Stem Cell Growth Media (Lonza). Cells between passage 3 and 6 were used for the experiments.
Each compound was dissolved in DMSO as a 10 mM stock and used to prepare compound source plates. For the 96 well assay, serial dilution (1:3, 6-point dose-response curves from 2700 nM to 10 nM) and compound transfer was performed using the ECHO 550 (Labcyte, Sunnyvale, Calif.) into 96-well clear bottom assay plates (Greiner Bio-One) with appropriate DMSO backfill for a final DMSO concentration of 0.03%. hMSCs were plated at 20,000 cells/well in 250 μL/well Incomplete Chondrogenic Induction Medium (Lonza; DMEM, dexamethasone, ascorbate, insulin-transferrin-selenium [ITS supplement], gentamycin-amphotericin [GA-1000], sodium pyruvate, proline and L-glutamine). TGF-−3 (10 ng/mL) was used as a positive control for differentiation while negative control wells were treated with 75 nL DMSO for normalization and calculating EC50 values. For the 384 well assay, serial dilution (1:3, 8-point dose-response curves from 5000 nM to 2.2 nM) and compound transfer was performed using the ECHO 550 (Labcyte, Sunnyvale, Calif.) into 384-well clear bottom assay plates (Greiner Bio-One) with appropriate DMSO backfill for a final DMSO concentration of 0.03%. hMSCs were plated at 8,000 cells/well in 80 μL/well Incomplete Chondrogenic Induction Medium (Lonza; DMEM, dexamethasone, ascorbate, insulin-transferrin-selenium [ITS supplement], gentamycin-amphotericin [GA-1000], sodium pyruvate, proline and L-glutamine). TGF-β3 (10 ng/mL) was used as a positive control for differentiation while negative control wells were treated with 25 nL DMSO for normalization and calculating EC50 values. Cells were incubated at 37° C. and 5% CO2 for 6 days. To image chondrogenic nodules, the cells were fixed using 4% formaldehyde (Electron Microscopy Sciences), and stained with 2 μg/mL Rhodamine B (Sigma-Aldrich) and 20 μM Nile Red (Sigma-Aldrich) [Johnson K., et. al, A Stem Cell-Based Approach to Cartilage Repair, Science, (2012), 336(6082), 717-721]. The nodules imaged (25 images per well for 96 well plates and 9 images per well for 384 well plates at 10× magnification) by excitation at 531 nm and emission at 625 nm and quantified using the CellInsight CX5 (Thermo Scientific). Area of nodules in each well was normalized to the average of 3 DMSO treated wells on the same plate using Excel (Microsoft Inc.). The normalized averages (fold change over DMSO) of 2 or 3 replicate wells for each compound concentration were calculated. Due to solubility limitations of some of the compounds, curve fitting was incomplete leading to inaccurate EC50 determinations.
Using TGF-β3 as a positive control, the concentration of representative compounds required to induce 50% levels of chondrogenesis is reported. In addition, the maximum activity of each compound and the respective dose that each compound reached maximum chondrogenesis activity is reported.

SW480 colon cancer cells = assay: Cell viability assay (CellTiter-Blue), four days; conditions: Homo sapiens, 96 h; for EC50: CellTiter-Blue cell viability; for inhibition at 10 µM: read-out: percent inhibition at 10 μM (given for EC50 of >10 μM)
How it was run: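 4-day exposure, 37 °C/5% CO2; ~2×10^3 SW480 cells/well; 8-pt 1:3 curve, 10–0.0045 μM, duplicates vs DMSO controls. Resazurin→resorufin fluorescence readout, ~3 h. EC50 by nonlinear fit; if >10 μM, % inhibition at 10 μM reported.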

IL-6 (THP-1 cells) = assay: Inhibition of IL-6 in LPS-stimulated THP-1 monocytes (HTRF); conditions: Homo sapiens; for EC50: LPS 500 ng/mL, IL-6 by HTRF; for inhibition at 10 µM: LPS stimulated, IL-6, at 10 μM, read-out: percent inhibition at 10 μM (given for EC50 of >10 μM)
How it was run: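 IL-6 release was read as the HTRF 665/620 nm ratio after 22 h of 500 ng/mL LPS at 37 °C. Before stimulation, THP-1 cells kept 24 h in 1% FBS were exposed 2 h to a 10-point 1:3 compound series starting at 10 μM, in 0.1% DMSO. Four-parameter EC50s came from DMSO-normalized duplicates, with % inhibition at 10 μM reported beyond 10 μM.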

Compound | Emax [1] | EC50 [1] | EC50 (SW480 colon cancer cells) | EC50 (IL-6 (THP-1 cells)) | inhibition at 10 µM (SW480 colon cancer cells) | inhibition at 10 µM (IL-6 (THP-1 cells))
Fc1cccc(-c2ccnc3[nH]c(-c4n[nH]c5ccc(-c6cncc(CN7CCC(F)(F)C7)c6)nc45)nc23)c1 [Compound 26, 5-(5-((3,3-Difluoropyrrolidin-1-yl)methyl)pyridin-3-yl)-3-(7-(3-fluorophenyl)-3H-imidazo[4,5-b]pyridin-2-yl)-1H-pyrazolo[4,3-b]pyridine] | 247% | 900 nM | 409 nM | 985 nM |  | 
CN(C)c1cncc(-c2ccc3[nH]nc(-c4nc5c(-c6cccs6)ccnc5[nH]4)c3n2)c1 [Compound 343, N,N-dimethyl-5-(3-(7-(thiophen-2-yl)-3H-imidazo[4,5-b]pyridin-2-yl)-1H-pyrazolo [4,3-b]pyridin-5-yl)pyridin-3-amine] | 57% | 900 nM | > 10000 nM | 4 nM | 17.5% | 
Cc1cn(-c2ccnc3[nH]c(-c4n[nH]c5ccc(-c6cncc(NC(=O)C(C)(C)C)c6)nc45)nc23)cn1 [Compound 204, N-(5-(3-(7-(4-methyl-1H-imidazol-1-yl)-3H-imidazo[4,5-b]pyridin-2-yl)-1H-pyrazolo[4,3-b]pyridin-5-yl)pyridin-3-yl)pivalamide] | 70% | 10 nM | > 10000 nM | > 10000 nM | 0% | 36.3%
O=C(Cc1ccccc1)Nc1cncc(-c2ccc3[nH]nc(-c4nc5c(-c6ccncc6)ccnc5[nH]4)c3n2)c1 [Compound 122, 2-phenyl-N-(5-(3-(7-(pyridin-4-yl)-3H-imidazo[4,5-b]pyridin-2-yl)-1H-pyrazolo[4,3-b]pyridin-5-yl)pyridin-3-yl)acetamide] | 63% | 10 nM | > 10000 nM | > 10000 nM | 4.4% | 27%
Fc1cccc(-c2ccnc3[nH]c(-c4n[nH]c5ccc(C6CCNCC6)nc45)nc23)c1 [Compound 505, 3-(7-(3-fluorophenyl)-3H-imidazo[4,5-b]pyridin-2-yl)-5-(piperidin-4-yl)-1H-pyrazolo[4,3-b]pyridine] | 51% | 10 nM | 8300 nM | 3480 nM |  | 
Fc1cccc(-c2ccnc3[nH]c(-c4n[nH]c5ccc(-c6cn[nH]c6)nc45)nc23)c1 [Compound 507, 3-(7-(3-fluorophenyl)-3H-imidazo[4,5-b]pyridin-2-yl)-5-(1H-pyrazol-4-yl)-1H-pyrazolo[4,3-b]pyridine] | 57% | 7 nM | > 10000 nM | > 10000 nM | 0% | 35.9%
CN(C)Cc1cncc(-c2ccc3[nH]nc(-c4nc5c(N6CCCCC6)ccnc5[nH]4)c3n2)c1 [Compound 181, N,N-dimethyl-1-(5-(3-(7-(piperidin-1-yl)-3H-imidazo[4,5-b]pyridin-2-yl)-1H-pyrazolo[4,3-b]pyridin-5-yl)pyridin-3-yl)methanamine] | 44% |  | 5550 nM | 8300 nM |  | 
